# Test results reported in patent US9409976B2, “CDIM binding proteins and uses thereof” (IGM BIOSCIENCES, INC., priority 2012, dated 2016).
# Where two headings read alike, the source gives them in different places.
# B1: IGM1: IgM; heavy chain H1 (SEQ ID NO:28) with lambda light chain (SEQ ID NO:50) (antibody)
# heavy: QVQLQQWGAGLLKPSETLSLTCAVYGGSFSGYYWSWIRQPPGKGLEWIGEINHSGSTNYNPSLKSRVTISVDTSKNQFSLKLSSVTAADTAVYYCARGRMAWGASVNFDYWGQGTLVTVSSGSASAPTLFPLVSCENSPSDTSSVAVGCLAQDFLPDSITFSWKYKNNSDISSTRGFPSVLRGGKYAATSQVLLPSKDVMQGTDEHVVCKVQHPNGNKEKNVPLPVIAELPPKVSVFVPPRDGFFGNPRKSKLICQATGFSPRQIQVSWLREGKQVGSGVTTDQVQAEAKESGPTTYKVTSTLTIKESDWLSQSMFTCRVDHRGLTFQQNASSMCVPDQDTAIRVFAIPPSFASIFLTKSTKLTCLVTDLTTYDSVTISWTRQNGEAVKTHTNISESHPNATFSAVGEASICEDDWNSGERFTCTVTHTDLPSPLKQTISRPKGVALHRPDVYLLPPAREQLNLRESATITCLVTGFSPADVFVQWMQRGQPLSPEKYVTSAPMPEPQAPGRYFAHSILTVSEEEWNTGETYTCVVAHEALPNRVTERTVDKSTGKPTLYNVSLVMSDTAGTCY
# light: DIQMTQSPSTLSASVGDRVTITCTGTSSDVGGYNYVSWYQQHPGKAPKLMIYGVSNRFSGSKSGNTASLTISGLAAEDEADYYCSSYTSSSTLVVFGGGTKLTVLGQPKAAPSVTLFPPSSEELQANKATLVCLISDFYPGAVTVAWKADSSPVKAGVETTTPSKQSNNKYAASSYLSLTPEQWKSHRSYSCQVTHEGSTVEKTVAPTECS
# Tests used:
# B cells = assay: Combination of agents with CDIM binding proteins, cytotoxicity to B cells; type: cell-based
# [1] = tested on: CDIM antigen on human pro-B cell line NALM-6; assay: Binding of CDIM binding proteins to CDIM antigen on NALM-6 cells, flow cytometry (MFI); settings: 1 hour on ice, non-linear regression curve fit
# Procedure: This example describes how the binding properties of the disclosed antibodies were investigated. The antibodies were prepared by affinity chromatography. In FIG. 6A, the human pro-B cell line, NALM-6, which expresses the CDIM antigen on the cell surface was stained with the series of recombinant IgM antibodies. The antibodies were used to determine the dose response beginning at 20 μg/tube diluted stepwise by 2, to a final concentration at 0.039 μg. Cells were stained in a 100 μl volume in 3% FBS/PBS on ice for 1 hour followed by a subsequent staining with DyLight-488 conjugated anti-human IgM (Jackson Immuno), 1 μg/ml for 20 minutes at 4 C.
# Analysis of CDIM binding was performed on FACScan flow cytometer using CellQuest analysis software. Results are shown as raw data points with Mean Fluorescence Intensity (MFI) on Y-axis and concentration of primary antibody (μg/100 μl) on X-axis.
# The data were re-analyzed using GraphPad analysis program to fit the results using non-linear regression curve fit. EC50 (μg/100 μl) for each antibody was (a) 10.6 for IGM1, (b) 2.2 for IGM23, (c) 2.2 for IGM34, and (d) 1.7 for IGM36.
# [2] = tested on: human pro-B cell line NALM-6; assay: Cytotoxicity resulting from cellular binding, propidium iodine uptake; type: cell-based; settings: NALM-6 cells, viability after 1 hour of staining
# Procedure: This example describes how the cytotoxicity of the CDIM binding proteins was investigated. The human pro-B cell line NALM-6 was stained identically as described in FIG. 6A above. In FIG. 6B, cell killing was evaluated by measuring cell viability after 1 hour of staining. […] Results are shown as raw data with % viability on Y-axis and concentration (μg/100 μl) on X-axis.
# Identical results were graphed using GraphPad analysis program and data fit using non-linear regression curve fitting. The EC50 was calculated for each antibody using the same approach described above. EC50 (μg/100 μl) for each antibody was (a) 3.0 for IGM1, (b) 0.6 for IGM 23, (c) 0.6 for IGM34, and (d) 0.3 for IGM36.
# [3] = combination with CDIM binding proteins
Molecule,Effect of combination with CDIM binding proteins (B cells; [3]),also measured
"Nc1ccn([C@@H]2O[C@H](CO)[C@@H](O)[C@@H]2O)c(=O)n1 [Ara-C (Cytarabine), Cytarabine]",Additive Effect,
COc1cc2c(c(OC)c1OC)-c1ccc(OC)c(=O)cc1[C@@H](NC(C)=O)CC2 [Colchisine],Synergistic Effect,
COc1cccc2c1C(=O)c1c(O)c3c(c(O)c1C2=O)C[C@@](O)(C(C)=O)C[C@@H]3O[C@H]1C[C@H](N)[C@H](O)[C@H](C)O1 [Daunorubicin],,Effect of combination with CDIM binding proteins (B cells): Additive Effect
"COc1cc([C@@H]2c3cc4c(cc3[C@@H](O[C@@H]3O[C@@H]5CO[C@@H](C)O[C@H]5[C@H](O)[C@H]3O)[C@H]3COC(=O)[C@H]23)OCO4)cc(OC)c1O [Etoposide (VP-16), Etoposide]",Additive Effect,
COC(=O)Nc1nc2ccc(C(=O)c3cccs3)cc2[nH]1 [Nocodazole],Synergistic Effect,
"CC(=O)O[C@H]1C(=O)[C@@]2(C)[C@H]([C@H](OC(=O)c3ccccc3)[C@]3(O)C[C@H](OC(=O)[C@H](O)[C@@H](NC(=O)c4ccccc4)c4ccccc4)C(C)=C1C3(C)C)[C@]1(OC(C)=O)CO[C@@H]1C[C@@H]2O [Paclitaxel (Taxol), Paclitaxel]",Possible/Undermined,
CC[C@]1(O)C[C@H]2CN(CCc3c([nH]c4ccccc34)[C@@](C(=O)OC)(c3cc4c(cc3OC)N(C=O)[C@H]3[C@@](O)(C(=O)OC)[C@H](OC(C)=O)[C@]5(CC)C=CCN6CC[C@]43[C@@H]65)C2)C1 [Vincristine],Synergistic Effect,"Effect of combination with CDIM binding proteins (B cells; combination with CDIM binding proteins, listed as vincristine): enhanced degree of cytotoxicity to B cells when compared to the additive effect of each single agent alone"
B1,,EC50 of CDIM binding (MFI) [1]: 10.6 μg/100 μl; EC50 of cytotoxicity (% viability) [2]: 3.0 μg/100 μl
